Assay results published in patent US12595266B2, “Pesticidally active heterocyclic derivatives with sulfur containing substituents” (SYNGENTA CROP PROTECTION AG, priority 2020, dated 2026).

Assays:
Format in all cases: in vivo
[1] = system: Myzus persicae (Green Peach Aphid); assay: Activity against Myzus persicae (green peach aphid), systemic activity; conditions: 144 h, test rate of 24 ppm, roots of infested pea seedlings in test solution (systemic), 6 days
Procedure: Example B9: Activity Against Myzus persicae (Green Peach Aphid) Systemic Activity
Roots of pea seedlings infested with an aphid population of mixed ages were placed directly into aqueous test solutions prepared from 10′000 DMSO stock solutions. The samples were assessed for mortality 6 days after placing seedlings into test solutions.

[2] = system: Plutella xylostella (Diamond Back Moth); assay: Activity against Plutella xylostella (diamond back moth); conditions: 192 h, application rate of 200 ppm, artificial diet, Plutella eggs, 8 days after infestation, read-out: effect in at least one of the two categories (mortality or growth inhibition)
Procedure: Example B7: Activity Against Plutella xylostella (Diamond Back Moth)
24-well microtiter plates with artificial diet were treated with aqueous test solutions prepared from 10′000 ppm DMSO stock solutions by pipetting. After drying, Plutella eggs were pipetted through a plastic stencil onto a gel blotting paper and the plate was closed with it. The samples were assessed for mortality and growth inhibition in comparison to untreated samples 8 days after infestation.

[3] = system: Spodoptera littoralis (Egyptian Cotton Leaf Worm); assay: Activity against Spodoptera littoralis (Egyptian cotton leaf worm); conditions: foliar, 72 h, application rate of 200 ppm, cotton leaf discs sprayed, L1 larvae, 3 days after infestation, read-out: control (at least one of mortality, anti-feedant effect, growth inhibition)
Procedure: Example B8: Activity Against Spodoptera littoralis (Egyptian Cotton Leaf Worm)
Cotton leaf discs were placed onto agar in 24-well microtiter plates and sprayed with aqueous test solutions prepared from 10′000 ppm DMSO stock solutions. After drying the leaf discs were infested with five L1 larvae. The samples were assessed for mortality, anti-feeding effect, and growth inhibition in comparison to untreated samples 3 days after infestation. Control of Spodoptera littoralis by a test sample is given when at least one of the categories mortality, anti-feedant effect, and growth inhibition is higher than the untreated sample.

[4] = system: Euschistus heros (Neotropical Brown Stink Bug); assay: Activity against Euschistus heros (neotropical brown stink bug); conditions: 120 h, application rate of 200 ppm, soybean leaves sprayed, N2 nymphs, 5 days after infestation, read-out: effect in at least one of the two categories (mortality or growth inhibition)
Procedure: Example B4: Activity Against Euschistus heros (Neotropical Brown Stink Bug)
Soybean leaves on agar in 24-well microtiter plates were sprayed with aqueous test solutions prepared from 10′000 ppm DMSO stock solutions. After drying the leaves were infested with N2 nymphs. The samples were assessed for mortality and growth inhibition in comparison to untreated samples 5 days after infestation.

[5] = system: Chilo suppressalis (Striped Rice Stemborer); assay: Activity against Chilo suppressalis (striped rice stemborer); conditions: 144 h, application rate of 200 ppm, artificial diet, L2 larvae, 6 days after infestation, read-out: control (at least one of mortality, anti-feedant effect, growth inhibition)
Procedure: Example B2: Activity Against Chilo suppressalis (Striped Rice Stemborer)
24-well microtiter plates with artificial diet were treated with aqueous test solutions prepared from 10′000 ppm DMSO stock solutions by pipetting. After drying, the plates were infested with L2 larvae (6-8 per well). The samples were assessed for mortality, anti-feeding effect, and growth inhibition in comparison to untreated samples 6 days after infestation. Control of Chilo suppressalis by a test sample is given when at least one of the categories mortality, anti-feedant effect, and growth inhibition is higher than the untreated sample.

[6] = system: Diabrotica balteata (Corn Root Worm); assay: Activity against Diabrotica balteata (corn root worm); conditions: 96 h, application rate of 200 ppm, maize sprouts sprayed, L2 larvae, 4 days after infestation, read-out: effect in at least one of the two categories (mortality or growth inhibition)
Procedure: Example B3: Activity Against Diabrotica balteata (Corn Root Worm)
Maize sprouts placed onto an agar layer in 24-well microtiter plates were treated with aqueous test solutions prepared from 10′000 ppm DMSO stock solutions by spraying. After drying, the plates were infested with L2 larvae (6 to 10 per well). The samples were assessed for mortality and growth inhibition in comparison to untreated samples 4 days after infestation.

[7] = system: Myzus persicae (Green Peach Aphid); assay: Activity against Myzus persicae (green peach aphid), feeding/contact activity; conditions: foliar, 144 h, application rate of 200 ppm, sunflower leaf discs sprayed, aphid population of mixed ages, 6 days after infestation
Procedure: Example B6: Activity Against Myzus persicae (Green Peach Aphid) Feeding/Contact Activity
Sunflower leaf discs were placed onto agar in a 24-well microtiter plate and sprayed with aqueous test solutions prepared from 10′000 ppm DMSO stock solutions. After drying, the leaf discs were infested with an aphid population of mixed ages. The samples were assessed for mortality 6 days after infestation.

CCS(=O)(=O)c1c(N2Cc3cc4c(cc3C2=O)OC(F)(F)O4)nc(-c2cncnc2)n1C [Compound P7, 6-(5-ethylsulfonyl-1-methyl-2-pyrimidin-5-yl-imidazol-4-yl)-2,2-difluoro-5H-[1,3]dioxolo[4,5-f]isoindol-7-one]
≥ 80%: mortality at 24 ppm [1] | percent effect (mortality or growth inhibition) at 200 ppm [2]

CCS(=O)(=O)c1c(N2Cc3cc4c(cc3C2=O)OC(F)(F)O4)nc(C2CC2)n1C [Compound P24, 6-(2-cyclopropyl-5-ethylsulfonyl-1-methyl-imidazol-4-yl)-2,2-difluoro-5H-[1,3]dioxolo[4,5-f]isoindol-7-one]
≥ 80%: mortality at 24 ppm [1] | percent effect (mortality or growth inhibition) at 200 ppm [2] | percent control (mortality, anti-feedant effect or growth inhibition) at 200 ppm [3] | percent effect (mortality or growth inhibition) at 200 ppm [4] | percent control (mortality, anti-feedant effect or growth inhibition) at 200 ppm [5] | percent effect (mortality or growth inhibition) at 200 ppm [6] | mortality at 200 ppm [7]

CCS(=O)(=O)c1cc(N(C)C(C)=O)cnc1N1Cc2cc3c(cc2C1=O)OC(F)(F)O3 [Compound P18, N-[6-(2,2-difluoro-7-oxo-5H-[1,3]dioxolo[4,5-f]isoindol-6-yl)-5-ethylsulfonyl-3-pyridyl]-N-methyl-acetamide]
≥ 80%: percent effect (mortality or growth inhibition) at 200 ppm [2] | percent effect (mortality or growth inhibition) at 200 ppm [4] | mortality at 200 ppm [7]

CCS(=O)(=O)c1cc(C2CC2)cnc1N1Cc2cc3c(cc2C1=O)OC(F)(F)O3 [Compound P19, 6-(5-cyclopropyl-3-ethylsulfonyl-2-pyridyl)-2,2-difluoro-5H-[1,3]dioxolo[4,5-f]isoindol-7-one]
≥ 80%: percent effect (mortality or growth inhibition) at 200 ppm [2] | percent control (mortality, anti-feedant effect or growth inhibition) at 200 ppm [3] | percent control (mortality, anti-feedant effect or growth inhibition) at 200 ppm [5] | percent effect (mortality or growth inhibition) at 200 ppm [6] | mortality at 200 ppm [7]

CCS(=O)(=O)c1c(N2Cc3cc4c(cc3C2=O)OC(F)(F)O4)nc(-c2cnn(CC(F)F)c2)n1C [Compound P4, 6-[2-[1-(2,2-difluoroethyl)pyrazol-4-yl]-5-ethylsulfonyl-1-methyl-imidazol-4-yl]-2,2-difluoro-5H-[1,3]dioxolo[4,5-f]isoindol-7-one]
≥ 80%: mortality at 24 ppm [1] | percent effect (mortality or growth inhibition) at 200 ppm [2] | percent effect (mortality or growth inhibition) at 200 ppm [4] | percent control (mortality, anti-feedant effect or growth inhibition) at 200 ppm [5] | percent effect (mortality or growth inhibition) at 200 ppm [6] | mortality at 200 ppm [7]

CCS(=O)(=O)c1cc(OCC(C)(F)F)cnc1N1Cc2cc3c(cc2C1=O)OC(F)(F)O3 [Compound P12, 6-[5-(2,2-difluoropropoxy)-3-ethylsulfonyl-2-pyridyl]-2,2-difluoro-5H-[1,3]dioxolo[4,5-f]isoindol-7-one]
≥ 80%: percent effect (mortality or growth inhibition) at 200 ppm [2] | percent control (mortality, anti-feedant effect or growth inhibition) at 200 ppm [3] | percent effect (mortality or growth inhibition) at 200 ppm [4] | percent control (mortality, anti-feedant effect or growth inhibition) at 200 ppm [5] | percent effect (mortality or growth inhibition) at 200 ppm [6] | mortality at 200 ppm [7]

CCS(=O)(=O)c1cc(C(F)(F)F)cnc1N1Cc2cc3c(cc2C1=O)OC(F)(F)O3 [Compound P13, 6-[3-ethylsulfonyl-5-(trifluoromethyl)-2-pyridyl]-2,2-difluoro-5H-[1,3]dioxolo[4,5-f]isoindol-7-one]
≥ 80%: percent effect (mortality or growth inhibition) at 200 ppm [2] | percent control (mortality, anti-feedant effect or growth inhibition) at 200 ppm [3] | percent control (mortality, anti-feedant effect or growth inhibition) at 200 ppm [5]

CCS(=O)(=O)c1cc(OCC(F)(F)F)cnc1N1Cc2cc3c(cc2C1=O)OC(F)(F)O3 [Compound P8, 6-[3-ethylsulfonyl-5-(2,2,2-trifluoroethoxy)-2-pyridyl]-2,2-difluoro-5H-[1,3]dioxolo[4,5-f]isoindol-7-one]
≥ 80%: percent effect (mortality or growth inhibition) at 200 ppm [2] | percent control (mortality, anti-feedant effect or growth inhibition) at 200 ppm [3] | percent control (mortality, anti-feedant effect or growth inhibition) at 200 ppm [5] | percent effect (mortality or growth inhibition) at 200 ppm [6]

CCS(=O)(=O)c1c(N2Cc3cc4c(cc3C2=O)OC(F)(F)O4)nc(-c2cnn(CC3(C#N)CC3)c2)n1C [Compound P5, 1-[[4-[4-(2,2-difluoro-7-oxo-5H-[1,3]dioxolo[4,5-f]isoindol-6-yl)-5-ethylsulfonyl-1-methyl-imidazol-2-yl]pyrazol-1-yl]methyl]cyclopropanecarbonitrile]
≥ 80%: mortality at 24 ppm [1] | percent effect (mortality or growth inhibition) at 200 ppm [2] | mortality at 200 ppm [7]

CCS(=O)(=O)c1ccc(-n2cncn2)nc1N1Cc2cc3c(cc2C1=O)OC(F)(F)O3 [Compound P11, 6-[3-ethylsulfonyl-6-(1,2,4-triazol-1-yl)-2-pyridyl]-2,2-difluoro-5H-[1,3]dioxolo[4,5-f]isoindol-7-one]
≥ 80%: percent effect (mortality or growth inhibition) at 200 ppm [2] | percent control (mortality, anti-feedant effect or growth inhibition) at 200 ppm [3] | percent control (mortality, anti-feedant effect or growth inhibition) at 200 ppm [5] | percent effect (mortality or growth inhibition) at 200 ppm [6]

CCS(=O)(=O)c1c(N2Cc3cc4c(cc3C2=O)OC(F)(F)O4)nc(OCC(F)(F)F)n1C [Compound P6, 6-[5-ethylsulfonyl-1-methyl-2-(2,2,2-trifluoroethoxy)imidazol-4-yl]-2,2-difluoro-5H-[1,3]dioxolo[4,5-f]isoindol-7-one]
≥ 80%: percent effect (mortality or growth inhibition) at 200 ppm [2] | percent control (mortality, anti-feedant effect or growth inhibition) at 200 ppm [3] | percent control (mortality, anti-feedant effect or growth inhibition) at 200 ppm [5] | percent effect (mortality or growth inhibition) at 200 ppm [6]

CCS(=O)(=O)c1c(N2Cc3cc4c(cc3C2=O)OC(F)(F)O4)nc(-c2cc(C3CC3)no2)n1C [Compound P26, 6-[2-(3-cyclopropylisoxazol-5-yl)-5-ethylsulfonyl-1-methyl-imidazol-4-yl]-2,2-difluoro-5H-[1,3]dioxolo[4,5-f]isoindol-7-one]
≥ 80%: percent effect (mortality or growth inhibition) at 200 ppm [2] | percent control (mortality, anti-feedant effect or growth inhibition) at 200 ppm [3] | percent control (mortality, anti-feedant effect or growth inhibition) at 200 ppm [5] | percent effect (mortality or growth inhibition) at 200 ppm [6] | mortality at 200 ppm [7]

CCS(=O)(=O)c1c(N2Cc3cc4c(cc3C2=O)OC(F)(F)O4)nc(-n2ccc(Cl)n2)n1C [Compound P21, 6-[2-(3-chloropyrazol-1-yl)-5-ethylsulfonyl-1-methyl-imidazol-4-yl]-2,2-difluoro-5H-[1,3]dioxolo[4,5-f]isoindol-7-one]
≥ 80%: percent effect (mortality or growth inhibition) at 200 ppm [2] | percent control (mortality, anti-feedant effect or growth inhibition) at 200 ppm [3] | percent effect (mortality or growth inhibition) at 200 ppm [4] | percent effect (mortality or growth inhibition) at 200 ppm [6] | mortality at 200 ppm [7]

CCS(=O)(=O)c1c(N2Cc3cc4c(cc3C2=O)OC(F)(F)O4)nc(-c2cnn(C3CC3)c2)n1C [Compound P17, 6-[2-(1-cyclopropylpyrazol-4-yl)-5-ethylsulfonyl-1-methyl-imidazol-4-yl]-2,2-difluoro-5H-[1,3]dioxolo[4,5-f]isoindol-7-one]
≥ 80%: percent effect (mortality or growth inhibition) at 200 ppm [2] | percent control (mortality, anti-feedant effect or growth inhibition) at 200 ppm [3] | percent effect (mortality or growth inhibition) at 200 ppm [4] | percent control (mortality, anti-feedant effect or growth inhibition) at 200 ppm [5] | percent effect (mortality or growth inhibition) at 200 ppm [6] | mortality at 200 ppm [7]

CCS(=O)(=O)c1ccc(C2CC2)nc1N1Cc2cc3c(cc2C1=O)OC(F)(F)O3 [Compound P10, 6-(6-cyclopropyl-3-ethylsulfonyl-2-pyridyl)-2,2-difluoro-5H-[1,3]dioxolo[4,5-f]isoindol-7-one]
≥ 80%: percent effect (mortality or growth inhibition) at 200 ppm [2] | percent control (mortality, anti-feedant effect or growth inhibition) at 200 ppm [3] | percent effect (mortality or growth inhibition) at 200 ppm [4] | percent control (mortality, anti-feedant effect or growth inhibition) at 200 ppm [5]
